Results taken from patent publication US7332476B2, “Pyridyl substituted ketolide antibiotics” (Novartis AG, priority 2003, dated 2008).

What was measured:
[1] = In vivo pharmacokinetic study in rats, whole lung (IV and PO); conditions: male, Sprague-Dawley, 5 mg/kg, rat; for half-life: IV, whole lung, read-out: t1/2, IV Lung (converted); for Kp: lung/plasma, iv, read-out: L/P ratio, IV
Experimental: (§1) Animal Models. A total of 54 male Sprague-Dawley rats, weighing 200 grams in average, were evaluated for pharmacokinetic studies of representative pyridyl substituted ketolides. Rats were under overnight food restriction and received water ad libitum. Rats were acclimated for approximately 5 days before antibiotic administration.
(§2) Antibiotic Administration. Rats were given bolus administration through (IV) and oral (PO) routes. Representative pyridyl substituted ketolides and telithromycin, for comparison, were diluted in 0.85% saline to a concentration of 15.0 mg/ml, and the resulting pH was adjusted using 1N acetic acid until the compound was in solution. Approximately 200 microliters of the compound solution was administered to the rats. The target dose for IV and PO administration was 5 mg/kg and 15 mg/kg, respectively.
(§3) Sample Collection. Plasma and whole lung samples were collected from the rats. Plasma samples were obtained from blood samples by centrifugation at 3000 RPM for 10 min. Heparin was added in the plasma as an anticoagulant. Whole lung samples were homogenized in deionized water. Samples were stored at −80° C. A total of 9 time points were collected in triplicate at 0.083, 0.25, 0.5, 1, 2, 4, 6, 8, and 24 hrs. Ketolide concentrations in plasma and lung were determined by well-established non-GLP LC-MS-MS methods. PK parameters were estimated from the raw bioanalytical data using WinNolin software (Version 4.0, Pharsight Corporation, CA). […] All representative compounds were compared to telithromycin.

[2] = system: Streptococcus pyogenes Stpy_8668; assay: MIC, broth microdilution (NCCLS); assay type: cell-based; parameters: MIC, strain ID G: unit not given beside the values; conditions: for MIC: Table 10, Strain ID G (Table 8): Streptococcus pyogenes Stpy_8668
Procedure, shortened: (§4)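 NCCLS broth microdilution with 2-fold serial drug dilutions (methanol stocks diluted in water); inoculum 3×10^5–7×10^5 CFU/ml in CAMHB, with 2-5% lysed horse blood for S. pneumoniae. Incubation 18-24 h at 35° C., ambient air, except S. pneumoniae (5-10% CO2). MIC is lowest concentration preventing visible growth.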

[3] = system: Streptococcus pneumoniae Stpn_49619; assay: MIC, broth microdilution (NCCLS); assay type: cell-based; parameters: MIC, strain ID M: unit not given beside the values; conditions: for MIC: Table 10, Strain ID M (Table 8): Streptococcus pneumoniae Stpn_49619
Procedure, shortened: as §4

[4] = In vivo pharmacokinetic study in rats, plasma (IV and PO); parameters: species or system Sprague-Dawley rats; conditions: rat; for half-life / AUC / clearance / Vd: male, Sprague-Dawley; for half-life: 5 mg/kg, read-out: t1/2, IV Plasma (converted); for clearance / Vd: intravenous; for Vd: read-out: Vss; for F, PO: PO = 15 mg/kg
Experimental: as §1, §2, §3

[5] = system: S. pneumoniae Stpn_Erm 6849; assay: MIC, broth microdilution (NCCLS); assay type: cell-based, Streptococcus pneumoniae; conditions: strain ID P; broth microdilution; in µg/mL (unit assumed)
Procedure, shortened: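 S. pneumoniae MIC by NCCLS broth microdilution in cation-adjusted Mueller-Hinton broth with 2-5% lysed horse blood, inoculum 3×10^5–7×10^5 CFU/ml, 2-fold drug dilutions. Incubated 18-24 hours at 35° C. in 5-10% CO2; MIC is lowest concentration preventing visible growth.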

[6] = plasma, IV, dose IV = 5 mg/kg (Compound XIV: IV = 15)

In the case of `C=C[C@]12OC(=O)N(CCCCn3cnc(-c4ccc(OC)nc4)c3)[C@@H]1[C@@H](C)C(=O)[C@H](C)C[C@](C)(OC)[C@H](OC1O[C@H](C)C[C@H](N(C)C)[C@H]1O)[C@@H](C)C(=O)[C@@H](C)C(=O)O[C@@H]2CC` (stereo partly shown) [XVIII], the half-life [1] is reported as 3.1 h, the Kp [1] is reported as 110 and the MIC [2] is reported as “=0.05”. The MIC [3] was “=0.05”, the half-life ([4]; IV, plasma) was 1.7 h and the AUC [4, 6] was 2600 ng·h/mL. The clearance ([4]; plasma) was 91 mL/min/kg, the Vd ([4]; plasma) was 11 L/kg and the “F, PO” value [4] was 51%.

With `CC[C@H]1OC(=O)[C@@](C)(F)C(=O)[C@H](C)[C@@H](OC2O[C@H](C)C[C@H](N(C)C)[C@H]2O)[C@@](C)(OC)C[C@@H](C)C(=O)[C@H](C)[C@H]2N(CCCCn3cnc(-c4ccc(C)nc4)c3)C(=O)O[C@]12CC` (stereo partly shown) [XIV] the half-life [1] was 3.6 h, the Kp [1] was 83 and the MIC [2] was “=0.05”. The MIC [3] was “=0.05”, the half-life ([4]; IV, plasma) was 2.3 h and the AUC [4, 6] was 3300 ng·h/mL. For the same compound, the clearance ([4]; plasma) was 70 mL/min/kg, the Vd ([4]; plasma) was 13 L/kg and the “F, PO” value [4] was 43%.

For `CC[C@H]1OC(=O)[C@H](C)C(=O)[C@H](C)[C@@H](O[C@@H]2O[C@H](C)C[C@H](N(C)C)[C@H]2O)[C@](C)(OC)C[C@@H](C)C(=O)[C@H](C)[C@H]2N(CCCCn3cnc(-c4cccnc4)c3)C(=O)O[C@]12C` [Telithromycin, telithromycin, reference compound], the “MIC, strain ID P” value [5] was 0.2-0.78, the half-life [1] was 1.3 h and the Kp [1] was 16. The MIC [2] was “=0.05”, the “MIC, strain ID G” value ([2]; strain ID G, broth microdilution) was “=0.05” and the MIC [3] was “=0.05”. For the same compound, the “MIC, strain ID M” value ([3]; strain ID M, broth microdilution) was “=0.05”, the “AUC, IV” value ([4]; IV, dose IV = 5 mg/kg (Compound XIV: IV = 15)) was 2500 ng·h/mL and the “t1/2, IV Plasma” value ([4]; IV, plasma) was 1.0 h. The “F, PO” value [4] was 11%.

With `C=C[C@]12OC(=O)N(CCCCn3cnc(-c4ccc(C)nc4)c3)[C@@H]1[C@@H](C)C(=O)[C@H](C)C[C@](C)(OC)[C@H](OC1O[C@H](C)C[C@H](N(C)C)[C@H]1O)[C@@H](C)C(=O)[C@@H](C)C(=O)O[C@@H]2CC` (stereo partly shown) [XVI] the half-life [1] was 3.4 h, the Kp [1] was 80 and the MIC [2] was “=0.05”. For the same compound, the MIC [3] was “=0.05”, the half-life ([4]; IV, plasma) was 1.6 h and the AUC [4, 6] was 2100 ng·h/mL. The clearance ([4]; plasma) was 115 mL/min/kg, the Vd ([4]; plasma) was 14 L/kg and the “F, PO” value [4] was 35%.
